Data: patent publication US20220046923A1, “HERBICIDAL CINNOLINIUM COMPOUNDS” (SYNGENTA CROP PROTECTION AG, priority 2018, published 2022)

Legend:
Assay in all cases: Post-emergence efficacy, glasshouse spray test
Format in all cases: in vivo
Details in all cases: evaluated after 13 days
[1] = tested on: Amaranthus palmeri (AMAPA)
Method in brief: (§1)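 Visual damage score 13 days after spraying, 0 (no damage) to 100 (plant killed). Pot-grown plants were treated at 14 days post-sowing with aqueous spray of compound formulated in acetone/IF50, diluted with 0.25% or 1% Empicol ESC70 plus 1% ammonium sulphate; glasshouse kept at 24/16 °C, 14 h light, 65% RH.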

[2] = tested on: Chenopodium album (CHEAL)
Method in brief: as §1

[3] = tested on: Digitaria sanguinalis (DIGSA)
Method in brief: as §1

[4] = tested on: Echinochloa crus-galli (ECHCG)
Method in brief: as §1

Eleusine indica (ELEIN) = tested on: Eleusine indica (ELEIN)
Method in brief: as §1

[5] = tested on: Euphorbia heterophylla (EPHHL)
Method in brief: as §1

[6] = tested on: Ipomoea hederacea (IPOHE)
Method in brief: as §1

Lolium perenne (LOLPE) = tested on: Lolium perenne (LOLPE)
Method in brief: as §1

Setaria faberi (SETFA) = tested on: Setaria faberi (SETFA)
Method in brief: as §1

[7] = Amaranthus palmeri, post-emergence, 312 h, application rate 1000 g/Ha, read-out: Control of weed species AMAPA after post-emergence application (100=total damage to plant; 0=no damage to plant)
[8] = Chenopodium album, post-emergence, 312 h, application rate 1000 g/Ha, read-out: Control of weed species CHEAL after post-emergence application (100=total damage to plant; 0=no damage to plant)
[9] = Digitaria sanguinalis, post-emergence, 312 h, application rate 1000 g/Ha, read-out: Control of weed species DIGSA after post-emergence application (100=total damage to plant; 0=no damage to plant)
[10] = Echinochloa crus-galli, post-emergence, 312 h, application rate 1000 g/Ha, read-out: Control of weed species ECHCG after post-emergence application (100=total damage to plant; 0=no damage to plant)
[11] = Eleusine indica, post-emergence, 312 h, application rate 1000 g/Ha, read-out: Control of weed species ELEIN after post-emergence application (100=total damage to plant; 0=no damage to plant)
[12] = Euphorbia heterophylla, post-emergence, 312 h, application rate 1000 g/Ha, read-out: Control of weed species EPHHL after post-emergence application (100=total damage to plant; 0=no damage to plant)
[13] = Ipomoea hederacea, post-emergence, 312 h, application rate 1000 g/Ha, read-out: Control of weed species IPOHE after post-emergence application (100=total damage to plant; 0=no damage to plant)
[14] = Lolium perenne, post-emergence, 312 h, application rate 1000 g/Ha, read-out: Control of weed species LOLPE after post-emergence application (100=total damage to plant; 0=no damage to plant)
[15] = Setaria faberi, post-emergence, 312 h, application rate 1000 g/Ha, read-out: Control of weed species SETFA after post-emergence application (100=total damage to plant; 0=no damage to plant)

COc1ccc2n[n+](CC(=O)[O-])ccc2c1 [Compound A68]
pest or weed control at 1000 g/ha [1, 7]: 60% | pest or weed control at 1000 g/ha [2, 8]: 50% | pest or weed control at 1000 g/ha [3, 9]: 30% | pest or weed control at 1000 g/ha [4, 10]: 50% | pest or weed control at 1000 g/ha (Eleusine indica (ELEIN); [11]): 20% | pest or weed control at 1000 g/ha [5, 12]: 20% | pest or weed control at 1000 g/ha [6, 13]: 20% | pest or weed control at 1000 g/ha (Lolium perenne (LOLPE); [14]): 10% | pest or weed control at 1000 g/ha (Setaria faberi (SETFA); [15]): 30%

N[C@@H](CCC[n+]1ccc2ccccc2n1)C(=O)[O-].O=C(O)C(F)(F)F [Compound A18]
Control of weed species AMAPA after post-emergence application (100=total damage to plant; 0=no damage to plant) ([1]; application rate 1000 g/Ha): 60 | Control of weed species CHEAL after post-emergence application (100=total damage to plant; 0=no damage to plant) ([2]; application rate 1000 g/Ha): 100 | Control of weed species DIGSA after post-emergence application (100=total damage to plant; 0=no damage to plant) ([3]; application rate 1000 g/Ha): 40 | Control of weed species ECHCG after post-emergence application (100=total damage to plant; 0=no damage to plant) ([4]; application rate 1000 g/Ha): 30 | Control of weed species ELEIN after post-emergence application (100=total damage to plant; 0=no damage to plant) (Eleusine indica (ELEIN); application rate 1000 g/Ha): 90 | Control of weed species EPHHL after post-emergence application (100=total damage to plant; 0=no damage to plant) ([5]; application rate 1000 g/Ha): 20 | Control of weed species IPOHE after post-emergence application (100=total damage to plant; 0=no damage to plant) ([6]; application rate 1000 g/Ha): 30 | Control of weed species LOLPE after post-emergence application (100=total damage to plant; 0=no damage to plant) (Lolium perenne (LOLPE); application rate 1000 g/Ha): 30 | Control of weed species SETFA after post-emergence application (100=total damage to plant; 0=no damage to plant) (Setaria faberi (SETFA); application rate 1000 g/Ha): 20

COc1ccc2cc[n+](CCS(=O)(=O)[O-])nc2c1 [Compound A85]
pest or weed control at 1000 g/ha [1, 7]: 100% | pest or weed control at 1000 g/ha [2, 8]: 100% | pest or weed control at 1000 g/ha [3, 9]: 20% | pest or weed control at 1000 g/ha [4, 10]: 20% | pest or weed control at 1000 g/ha (Eleusine indica (ELEIN); [11]): 40% | pest or weed control at 1000 g/ha [5, 12]: 80% | pest or weed control at 1000 g/ha [6, 13]: 70% | pest or weed control at 1000 g/ha (Lolium perenne (LOLPE); [14]): 20% | pest or weed control at 1000 g/ha (Setaria faberi (SETFA); [15]): 30%

CS(=O)(=O)[N-]C(=O)CCC[n+]1ccc2ccccc2n1 [Compound A30]
pest or weed control at 1000 g/ha [1, 7]: 70% | pest or weed control at 1000 g/ha [2, 8]: 60% | pest or weed control at 1000 g/ha [3, 9]: 20% | pest or weed control at 1000 g/ha [4, 10]: 10% | pest or weed control at 1000 g/ha (Eleusine indica (ELEIN); [11]): 20% | pest or weed control at 1000 g/ha [5, 12]: 50% | pest or weed control at 1000 g/ha [6, 13]: 10% | pest or weed control at 1000 g/ha (Lolium perenne (LOLPE); [14]): 10% | pest or weed control at 1000 g/ha (Setaria faberi (SETFA); [15]): 20%

O=S(=O)([O-])CC[n+]1ccc2ccc(F)cc2n1 [Compound A83]
pest or weed control at 1000 g/ha [1, 7]: 100% | pest or weed control at 1000 g/ha [2, 8]: 100% | pest or weed control at 1000 g/ha [3, 9]: 50% | pest or weed control at 1000 g/ha [4, 10]: 40% | pest or weed control at 1000 g/ha (Eleusine indica (ELEIN); [11]): 80% | pest or weed control at 1000 g/ha [5, 12]: 100% | pest or weed control at 1000 g/ha [6, 13]: 60% | pest or weed control at 1000 g/ha (Lolium perenne (LOLPE); [14]): 50% | pest or weed control at 1000 g/ha (Setaria faberi (SETFA); [15]): 50%

CNC(=O)c1c[n+](CCC(=O)O)nc2ccccc12 [Compound A14]
pest or weed control at 500 g/ha ([1]; Amaranthus palmeri, post-emergence, 312 h, application rate 500 g/Ha, read-out: Control of weed species AMAPA after post-emergence application (100=total damage to plant; 0=no damage to plant)): 100% | pest or weed control at 500 g/ha ([2]; Chenopodium album, post-emergence, 312 h, application rate 500 g/Ha, read-out: Control of weed species CHEAL after post-emergence application (100=total damage to plant; 0=no damage to plant)): 90% | pest or weed control at 500 g/ha ([3]; Digitaria sanguinalis, post-emergence, 312 h, application rate 500 g/Ha, read-out: Control of weed species DIGSA after post-emergence application (100=total damage to plant; 0=no damage to plant)): 80% | pest or weed control at 500 g/ha ([4]; Echinochloa crus-galli, post-emergence, 312 h, application rate 500 g/Ha, read-out: Control of weed species ECHCG after post-emergence application (100=total damage to plant; 0=no damage to plant)): 70% | pest or weed control at 500 g/ha (Eleusine indica (ELEIN); Eleusine indica, post-emergence, 312 h, application rate 500 g/Ha, read-out: Control of weed species ELEIN after post-emergence application (100=total damage to plant; 0=no damage to plant)): 100% | pest or weed control at 500 g/ha ([5]; Euphorbia heterophylla, post-emergence, 312 h, application rate 500 g/Ha, read-out: Control of weed species EPHHL after post-emergence application (100=total damage to plant; 0=no damage to plant)): 60% | pest or weed control at 500 g/ha ([6]; Ipomoea hederacea, post-emergence, 312 h, application rate 500 g/Ha, read-out: Control of weed species IPOHE after post-emergence application (100=total damage to plant; 0=no damage to plant)): 50% | pest or weed control at 500 g/ha (Lolium perenne (LOLPE); Lolium perenne, post-emergence, 312 h, application rate 500 g/Ha, read-out: Control of weed species LOLPE after post-emergence application (100=total damage to plant; 0=no damage to plant)): 30% | pest or weed control at 500 g/ha (Setaria faberi (SETFA); Setaria faberi, post-emergence, 312 h, application rate 500 g/Ha, read-out: Control of weed species SETFA after post-emergence application (100=total damage to plant; 0=no damage to plant)): 80%

O=S(=O)([O-])N1CCC[C@H]1C[n+]1ccc2ccccc2n1 [Compound A47]
pest or weed control at 1000 g/ha [1, 7]: 100% | pest or weed control at 1000 g/ha [2, 8]: 60% | pest or weed control at 1000 g/ha [3, 9]: 90% | pest or weed control at 1000 g/ha [4, 10]: 30% | pest or weed control at 1000 g/ha (Eleusine indica (ELEIN); [11]): 90% | pest or weed control at 1000 g/ha [5, 12]: 60% | pest or weed control at 1000 g/ha [6, 13]: 20% | pest or weed control at 1000 g/ha (Lolium perenne (LOLPE); [14]): 10% | pest or weed control at 1000 g/ha (Setaria faberi (SETFA); [15]): 40%
